IC50 data for 50 compounds are collected here from patent US11155560B2, “Substituted pyrazolo[1,5-a]pyrimidines for modulating CDK9 activity” (Kronos Bio, Inc., priority 2018, dated 2021).

Experiment [1] addresses T1, CDK9/cyclin T1 (Homo sapiens, UniProt P50750). In words: CDK9/cyclin T1 inhibition, radiometric assay. Format: biochemical. The following applies: read-out: CDK9/cyclin T1 Potency Grade. As for the experimental part:
Exemplary compounds of the invention (1-34) were tested for inhibition of CDK9/cyclin T1. […] Reactions were carried out at 10 μM ATP. Data was normalized to positive and negative controls and curve fits were executed with GraphPad software and were performed where the enzyme activities at the highest concentration of compounds were less than 65%.

For experiment [2], the target named is T1, CDK9/cyclin T1. Briefly: CDK9/cyclin T1 kinase inhibition, LANCE assay. Format: biochemical. The following applies: reaction time 60 minutes, 10 μM ATP, 10-dose IC50, compounds 35-126 (127-208 listed, method not stated), read-out: CDK9/cyclin T1 Potency Grade. As for the experimental part: Exemplary compounds of the invention (35-126) were tested for inhibition of CDK9/cyclin T1 kinase. Using a LANCE assay (reaction time 60 minutes), the compounds were tested in 10-dose IC50 duplicate mode with a 3-fold serial dilution starting at 4.3 μM. […] Reactions were carried out at 10 μM ATP. Data was normalized to positive and negative controls and curve fits were analyzed with XLFIT5 as % inhibition vs. log [compound concentration] using a 4-parameter logistic model205. Fit=(A+((B−A)/(1+((C/x)^D)))); Res =(y-fit).
A general note: Time-resolved FRET reads energy transfer from a long-lived donor to a nearby acceptor.

T1 sequence (P50750 whole entry): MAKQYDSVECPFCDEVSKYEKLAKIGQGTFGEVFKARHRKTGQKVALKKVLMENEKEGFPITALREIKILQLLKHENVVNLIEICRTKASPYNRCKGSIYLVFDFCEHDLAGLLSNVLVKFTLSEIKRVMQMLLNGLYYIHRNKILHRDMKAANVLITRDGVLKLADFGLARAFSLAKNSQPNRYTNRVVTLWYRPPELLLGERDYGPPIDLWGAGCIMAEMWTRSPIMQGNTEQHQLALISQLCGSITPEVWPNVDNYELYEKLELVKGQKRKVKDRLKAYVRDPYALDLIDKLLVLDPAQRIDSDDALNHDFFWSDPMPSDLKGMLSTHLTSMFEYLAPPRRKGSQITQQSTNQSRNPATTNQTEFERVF
T1 sequence (O60563 whole entry partner): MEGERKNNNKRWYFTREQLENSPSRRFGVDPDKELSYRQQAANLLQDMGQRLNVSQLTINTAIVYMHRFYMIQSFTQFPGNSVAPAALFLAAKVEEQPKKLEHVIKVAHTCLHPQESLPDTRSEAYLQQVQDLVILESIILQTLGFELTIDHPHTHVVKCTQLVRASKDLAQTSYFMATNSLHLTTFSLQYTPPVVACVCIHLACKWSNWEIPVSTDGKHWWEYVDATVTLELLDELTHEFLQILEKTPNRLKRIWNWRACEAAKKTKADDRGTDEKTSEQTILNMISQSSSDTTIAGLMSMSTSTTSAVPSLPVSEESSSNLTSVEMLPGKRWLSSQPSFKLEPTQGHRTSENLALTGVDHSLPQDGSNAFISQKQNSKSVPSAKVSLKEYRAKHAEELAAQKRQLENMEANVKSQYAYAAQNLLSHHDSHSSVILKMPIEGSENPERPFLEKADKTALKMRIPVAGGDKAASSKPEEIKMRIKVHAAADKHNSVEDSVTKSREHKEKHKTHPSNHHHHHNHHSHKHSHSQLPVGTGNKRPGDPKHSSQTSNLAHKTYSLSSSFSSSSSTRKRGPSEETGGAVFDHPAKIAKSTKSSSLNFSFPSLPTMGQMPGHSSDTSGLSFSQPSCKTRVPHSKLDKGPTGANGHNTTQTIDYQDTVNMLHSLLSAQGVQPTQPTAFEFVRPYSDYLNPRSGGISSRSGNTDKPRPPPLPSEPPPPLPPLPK

As to `CCC(C)c1cc(N[C@H]2C[C@H](N)C2)n2nccc2n1` (some centres unmarked) [Compound 19, N1-(5-sec-butylpyrazolo[1,5-a]pyrimidin-7-yl)cyclobutane-1,3-diamine], on CDK9/cyclin T1 [1], the IC50 lay in the range of 1 to 500 nM. With `N[C@@H]1CC[C@H](Nc2cc(C3CCCC3)nc3ccnn23)C1` [Compound 23, (1R,3S)—N3-(5-cyclopentylpyrazolo[1,5-a]pyrimidin-7-yl)cyclopentane-1,3-diamine], on CDK9/cyclin T1 [1], the IC50 lay in the range of 1 to 500 nM. On to `Cc1cc(N[C@H]2CC[C@H](N)CC2)n2nccc2n1` [Compound 4, [4-[(5-methylpyrazolo[1,5-a]pyrimidin-4-ium-7-yl)amino]cyclohexyl]ammonium dichloride], for which the IC50 at CDK9/cyclin T1 [1] is 501 to 1000 nM.

Consider `CC(C)c1cc(NC2CCCC2)n2nccc2n1` [Compound 2, N-cyclopentyl-5-isopropyl-pyrazolo[1,5-a]pyrimidin-7-amine], for which the IC50 at CDK9/cyclin T1 [1] is 1 to 500 nM. For the compound `CC(C)c1cc(NC2CCCCC2)n2nccc2n1` [Compound 29, N-cyclohexyl-5-isopropyl-pyrazolo[1,5-a]pyrimidin-7-amine], the IC50 on CDK9/cyclin T1 [1] was 1 to 500 nM. Consider `CC(=O)Nc1cc(N[C@@H]2CC[C@@H](N)C2)n2ncc(Cl)c2n1` [Compound 33, [(1R,3R)-3-[(5-acetamido-3-chloro-pyrazolo[1,5-a]pyrimidin-7-yl)amino]cyclopentyl]ammonium; 2,2,2-trifluoroacetate], for which the IC50 at CDK9/cyclin T1 [1] lay within 1 to 500 nM. In the case of `Cc1cc(N[C@H]2CC[C@@H](N)C2)n2nccc2n1` [Compound 12, [(1R,3S)-3-[(5-methylpyrazolo[1,5-a]pyrimidin-4-ium-7-yl)amino]cyclopentyl]ammonium dichloride], the IC50 at CDK9/cyclin T1 [1] lay in the range of 501 to 1000 nM.

Consider `CC(=O)Nc1cc(N[C@@H]2CC[C@@H](N)C2)n2ncc(Cl)c2n1` [Compound 127], for which, on CDK9/cyclin T1 [2], the IC50 lay within 1 to 500 nM.

Turning to `N[C@H]1CC[C@H](Nc2cc(C3CCCCC3)nc3ccnn23)C1` [Compound 206], at CDK9/cyclin T1 [2], the IC50 fell in the range of 1 to 500 nM. For the compound `N[C@H]1CC[C@H](Nc2cc(C3CCCCC3)nc3ccnn23)C1` [Compound 115], the IC50 on CDK9/cyclin T1 [2] was in the range of 1 to 500 nM. The same measure, in the same setting: for `CC(C)c1cc(N[C@@H]2CC[C@@H](N(O)C(N)=O)C2)n2nccc2n1` [Compound 60] the value was 1 to 500 nM. In the case of `CCN(CC)c1cc(N[C@H]2CC[C@H](N)C2)n2nccc2n1` [Compound 170], at CDK9/cyclin T1 [2], the IC50 lay in the range of 1 to 500 nM. Regarding `N[C@H]1CC[C@H](Nc2cc(-c3cc(Cl)cc(Cl)c3)nc3ccnn23)C1` [Compound 173], the IC50 on CDK9/cyclin T1 [2] was 1 to 500 nM. Take `COCCNc1cc(N[C@H]2CC[C@H](N)C2)n2nccc2n1` [Compound 88]: at CDK9/cyclin T1 [2], the IC50 is 501 to 1000 nM. Take `CCc1cc(N[C@H]2CC[C@H](N)C2)n2nccc2n1` [Compound 47]: the IC50 on CDK9/cyclin T1 [2] lay within 1 to 500 nM. Take `Cn1cncc1-c1cc(N[C@H]2CC[C@H](NC=O)C2)n2nccc2n1` [Compound 169]: the IC50 on CDK9/cyclin T1 [2] lay in the range of 501 to 1000 nM. On the same count and under the same terms, as for `Cn1ccc(-c2cc(N[C@H]3CC[C@H](N)C3)n3nccc3n2)n1` [Compound 116], the figure is 1 to 500 nM; as for `N[C@@H]1CC[C@@H](Nc2cc(C3CC3)nc3ccnn23)C1` [Compound 134], 1 to 500 nM.

On to `N[C@H]1CC[C@H](Nc2cc(-c3ccc4c(c3)OCO4)nc3c(Cl)cnn23)C1` [Compound 104], for which, at CDK9/cyclin T1 [2], the IC50 is 1 to 500 nM. On the same count and under the same terms, for `COC(=O)N[C@@H]1CC[C@@H](Nc2cc(C(C)C)nc3ccnn23)C1` [Compound 145] the value was 1 to 500 nM; for `COc1cc(N[C@@H]2CC[C@@H](N)C2)n2nccc2n1` [Compound 168], 501 to 1000 nM; for `CCOc1cc(N[C@H]2CC[C@H](N)C2)n2nccc2n1` [Compound 182], 501 to 1000 nM.

For the compound `CCC(CC)c1cc(N[C@H]2CC[C@H](N(C)CCOC)C2)n2nccc2n1` [Compound 62], the IC50 at CDK9/cyclin T1 [2] is 1 to 500 nM.

`N[C@H]1CC[C@H](Nc2cc(C#CC3CC3)nc3ccnn23)C1` [Compound 120]: the IC50 at CDK9/cyclin T1 [2] lay within 1 to 500 nM. In the case of `CC1(C)CC1c1cc(N[C@H]2CC[C@H](N)C2)n2nccc2n1` (some centres unmarked) [Compound 208], the IC50 at CDK9/cyclin T1 [2] is 1 to 500 nM. On the same count and under the same terms, for `N[C@H]1CC[C@H](Nc2cc(Nc3cccc4ccccc34)nc3ccnn23)C1` [Compound 80] the value was 1 to 500 nM; for `COc1cc(Cl)cc(-c2cc(N[C@H]3CC[C@H](N)C3)n3nccc3n2)c1` [Compound 165], 1 to 500 nM. Same read-out and setting: as for `N[C@H]1CC[C@H](Nc2cc(-c3ccc4ccccc4c3)nc3ccnn23)C1` [Compound 160], the figure is 501 to 1000 nM; as for `CN1CCN(c2cc(N[C@H]3CC[C@H](N)C3)n3nccc3n2)CC1=O` [Compound 102], 1 to 500 nM. Turning to `CN1CCN(c2cc(N[C@H]3CC[C@H](N)C3)n3nccc3n2)CC1` [Compound 99], on CDK9/cyclin T1 [2], the IC50 was greater than 1000 nM.

As to `CN(CCO)c1cc(N[C@H]2CC[C@H](N)C2)n2nccc2n1` [Compound 181], the IC50 at CDK9/cyclin T1 [2] fell in the range of 1 to 500 nM.

Regarding `Cc1cc(C)cc(-c2cc(N[C@H]3CC[C@H](N)C3)n3nccc3n2)c1` [Compound 196], the IC50 on CDK9/cyclin T1 [2] lay in the range of 1 to 500 nM. Still for that read-out and setting: as for `COC(=O)N[C@H]1CC[C@H](Nc2cc(C3CC3)nc3ccnn23)C1` [Compound 89], the figure is greater than 1000 nM; as for `N[C@@H]1CC[C@@H](Nc2cc(C3CCC3)nc3ccnn23)C1` [Compound 42], 1 to 500 nM. Regarding `N[C@H]1CC[C@H](Nc2cc(C3=CCOCC3)nc3ccnn23)C1` [Compound 110], the IC50 at CDK9/cyclin T1 [2] is 501 to 1000 nM.

`CC(C)c1cc(N[C@H]2CC[C@H](N)C2)n2ncc(C#N)c2n1` [Compound 64]: the IC50 at CDK9/cyclin T1 [2] was in the range of 1 to 500 nM.

For the compound `N[C@@H]1CC[C@@H](Nc2cc(C3CCC3)nc3ccnn23)C1` [Compound 133], on CDK9/cyclin T1 [2], the IC50 fell in the range of 1 to 500 nM. As to `CC(C)c1cc(N[C@@H]2CC[C@@H](NC(=N)N)C2)n2nccc2n1` [Compound 157], at CDK9/cyclin T1 [2], the IC50 lay in the range of 1 to 500 nM.

Consider `CC(C)(C#N)c1ccc(-c2cc(N[C@H]3CC[C@H](N)C3)n3nccc3n2)cc1` [Compound 204], for which, on CDK9/cyclin T1 [2], the IC50 fell in the range of 1 to 500 nM. Consider `CC(C)c1cc(N[C@@H]2CC[C@@H](N(O)C(N)=O)C2)n2nccc2n1` [Compound 151], for which, at CDK9/cyclin T1 [2], the IC50 was 1 to 500 nM.

Regarding `CCOc1cc(N[C@H]2CC[C@H](N)C2)n2nccc2n1` [Compound 91], the IC50 at CDK9/cyclin T1 [2] lay in the range of 501 to 1000 nM. Consider `CC(C)c1cc(N[C@@H]2CC[C@@H](NC(=O)OCc3ccccc3)C2)n2nccc2n1` [Compound 141], for which the IC50 at CDK9/cyclin T1 [2] was in the range of 1 to 500 nM. Take `CC(C)OC(=O)N[C@@H]1CC[C@@H](Nc2cc(C(C)C)nc3ccnn23)C1` [Compound 140]: the IC50 at CDK9/cyclin T1 [2] is 1 to 500 nM. On to `COc1cc(-c2cc(N[C@H]3CC[C@H](N)C3)n3nccc3n2)ccn1` [Compound 101], for which the IC50 at CDK9/cyclin T1 [2] lay in the range of 1 to 500 nM.

With `N[C@H]1CC[C@H](Nc2cc(-c3cccc(F)c3)nc3ccnn23)C1` [Compound 111], on CDK9/cyclin T1 [2], the IC50 lay in the range of 1 to 500 nM. As to `Cc1cnn2c(N[C@@H]3CC[C@@H](NC(=O)OCc4ccccc4)C3)cc(C(C)C)nc12` [Compound 178], the IC50 on CDK9/cyclin T1 [2] lay within 1 to 500 nM. Regarding `CC(C)OC(=O)N[C@@H]1CC[C@@H](Nc2cc(C(C)C)nc3c(Cl)cnn23)C1` [Compound 68], at CDK9/cyclin T1 [2], the IC50 was in the range of 501 to 1000 nM. With `Cc1ncc(-c2cc(N[C@H]3CC[C@H](N)C3)n3nccc3n2)cn1` [Compound 103], the IC50 on CDK9/cyclin T1 [2] lay within 501 to 1000 nM.

`N[C@@H]1CC[C@@H](Nc2cc(C3CC3)nc3ccnn23)C1` [Compound 43]: the IC50 on CDK9/cyclin T1 [2] lay in the range of 1 to 500 nM. Consider `N[C@H]1CC[C@H](Nc2cc(C3=CCCOC3)nc3ccnn23)C1` [Compound 112], for which the IC50 on CDK9/cyclin T1 [2] is 1 to 500 nM.
